According to ChEMBL document CHEMBL1201862, “PubChem BioAssay data set” (2004):
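Five concentrations, 48 hours, 96-well plates. GI50 marks 50% less growth.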 Active and inactive are the calls of the source. Cut-off read from the data, not from the text of the source: active = GI50 up to about 1.1 µM and inactive = higher.

Legend:
Assay in all cases: NCI tumour cell line growth inhibition, 48 h
SK-OV-3 = system: SK-OV-3
SK-MEL-2 = system: SK-MEL-2
UACC-62 = system: UACC-62
LOX IMVI = system: LOX IMVI
HCT-15 = system: HCT-15
NCI/ADR-RES = system: NCI/ADR-RES
BT-549 = system: BT-549
NCI-H226 = system: NCI-H226
HCC 2998 = system: HCC 2998
SF-268 = system: SF-268
HOP-62 = system: HOP-62
EKVX = system: EKVX
T47D = system: T47D
MDA-MB-435 = system: MDA-MB-435
OVCAR-5 = system: OVCAR-5
CCRF-CEM = system: CCRF-CEM
RPMI-8226 = system: RPMI-8226
786-0 = system: 786-0
NCI-H522 = system: NCI-H522
OVCAR-3 = system: OVCAR-3

Compound	GI50 (SK-OV-3)	GI50 (SK-MEL-2)	GI50 (UACC-62)	GI50 (LOX IMVI)	GI50 (HCT-15)	GI50 (NCI/ADR-RES)	GI50 (BT-549)	GI50 (NCI-H226)	GI50 (HCC 2998)	GI50 (SF-268)	GI50 (HOP-62)	GI50 (EKVX)	GI50 (T47D)	GI50 (MDA-MB-435)	GI50 (OVCAR-5)	GI50 (CCRF-CEM)	GI50 (RPMI-8226)	GI50 (786-0)	GI50 (NCI-H522)	GI50 (OVCAR-3)
Cc1cc2c(cc1C)[n+]([O-])c(N1CCN(c3ccc([N+](=O)[O-])cc3)CC1)c(C#N)[n+]2[O-]	14.2 µM (inactive)	22 µM (inactive)	20.3 µM (inactive)	25.2 µM (inactive)	85.3 µM	26.2 µM (inactive)	32.4 µM (inactive)	35.6 µM (inactive)	> 100 µM (inactive)	41.7 µM (inactive)	15.2 µM (inactive)	26 µM (inactive)	16.3 µM (inactive)	> 100 µM (inactive)	37.6 µM (inactive)	> 100 µM (inactive)	> 100 µM (inactive)	14.1 µM (inactive)	26.2 µM (inactive)	
COC1=C(Br)C(O)C2(C=C1Br)CC(C(=O)NCCCCNC(=O)C1=NOC3(C=C(Br)C(OC)=C(Br)C3O)C1)=NO2 (configuration not stated)	27.2 µM (inactive)	23.7 µM (inactive)	31.8 µM (inactive)	17 µM (inactive)	49 µM	51.2 µM (inactive)	33.6 µM (inactive)	4.73 µM (inactive)	52.1 µM (inactive)	13.5 µM (inactive)	30.5 µM (inactive)		11.4 µM (inactive)	19.9 µM (inactive)	50.4 µM (inactive)	10.1 µM (inactive)	8.99 µM (inactive)	31.1 µM (inactive)	11.3 µM (inactive)	15.6 µM (inactive)
O=C(Cn1c2ccc(Br)cc2c2nc3ccccc3nc21)Nc1ccccc1	> 100 µM (inactive)	55 µM (inactive)	48.1 µM (inactive)	15.8 µM (inactive)	25.1 µM	20 µM (inactive)	> 100 µM (inactive)	32.6 µM (inactive)	34.8 µM (inactive)	45.2 µM (inactive)	27.9 µM (inactive)		20.1 µM (inactive)	51.4 µM (inactive)	47 µM (inactive)	11.9 µM (inactive)	37.7 µM (inactive)	14.3 µM (inactive)	21.6 µM (inactive)	> 100 µM (inactive)
